Laboratory results reported in ChEMBL document CHEMBL4043209, “1-Phenyl-1H-indole derivatives as a new class of Bcl-2/Mcl-1 dual inhibitors: Design, synthesis, and preliminary biological evaluation” (Bioorg Med Chem, 2017).

Columns and labels:
[1] = target: Apoptosis regulator Bcl-2 (Homo sapiens, UniProt P10415); assay: Inhibition of 5-FAM-Bid-BH3 peptide binding to Bcl2 (unknown origin) pre-incubated for 30 mins followed by further incubation with 5-FAM-Bid-BH3 peptide for 20 mins by fluorescence polarization assay
Sequence of Apoptosis regulator Bcl-2 (P10415 whole entry): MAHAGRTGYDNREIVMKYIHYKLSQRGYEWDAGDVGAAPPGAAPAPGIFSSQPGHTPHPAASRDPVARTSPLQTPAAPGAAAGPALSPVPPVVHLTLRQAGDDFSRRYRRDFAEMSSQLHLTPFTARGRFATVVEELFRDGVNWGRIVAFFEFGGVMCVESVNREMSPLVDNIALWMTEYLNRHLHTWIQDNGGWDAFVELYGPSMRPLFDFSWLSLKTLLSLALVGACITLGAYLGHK

Bcl-2-like protein 1 = Bcl-2-like protein 1 (Homo sapiens, UniProt Q07817); assay: Inhibition of 5-FAM-Bid-BH3 peptide binding to Bcl-XL (unknown origin) pre-incubated for 30 mins followed by further incubation with 5-FAM-Bid-BH3 peptide for 20 mins by fluorescence polarization assay
Sequence of Bcl-2-like protein 1 (Q07817 whole entry): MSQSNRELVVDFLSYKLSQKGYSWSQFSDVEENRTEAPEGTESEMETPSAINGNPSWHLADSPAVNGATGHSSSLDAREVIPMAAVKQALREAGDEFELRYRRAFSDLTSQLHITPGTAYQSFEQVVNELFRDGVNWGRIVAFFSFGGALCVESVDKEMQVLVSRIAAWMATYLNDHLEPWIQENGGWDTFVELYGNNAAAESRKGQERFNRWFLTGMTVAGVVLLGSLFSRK

[2] = target: Induced myeloid leukemia cell differentiation protein Mcl-1 (Homo sapiens, UniProt Q07820); assay: Inhibition of 5-FAM-Bid-BH3 peptide binding to Mcl1 (unknown origin) pre-incubated for 30 mins followed by further incubation with 5-FAM-Bid-BH3 peptide for 20 mins by fluorescence polarization assay
Sequence of Induced myeloid leukemia cell differentiation protein Mcl-1 (Q07820 whole entry): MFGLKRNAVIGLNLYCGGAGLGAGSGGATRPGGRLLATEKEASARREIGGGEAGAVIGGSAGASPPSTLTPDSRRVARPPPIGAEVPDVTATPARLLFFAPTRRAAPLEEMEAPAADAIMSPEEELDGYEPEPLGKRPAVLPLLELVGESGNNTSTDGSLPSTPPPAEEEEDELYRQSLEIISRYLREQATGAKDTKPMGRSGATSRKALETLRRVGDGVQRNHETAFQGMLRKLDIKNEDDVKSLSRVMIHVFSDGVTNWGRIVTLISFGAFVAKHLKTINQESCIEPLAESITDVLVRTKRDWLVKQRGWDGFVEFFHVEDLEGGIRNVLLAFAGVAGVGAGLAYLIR

MDA-MB-231 = assay: Antiproliferative activity against human MDA-MB-231 cells incubated for 48 hrs by MTT assay; assay type: functional, cell-based; settings: MDA-MB-231, 48 h
PC-3 = assay: Antiproliferative activity against human PC3 cells incubated for 48 hrs by MTT assay; assay type: functional, cell-based; settings: PC-3, 48 h
K562 = assay: Antiproliferative activity against human K562 cells incubated for 48 hrs by MTT assay; assay type: functional, cell-based; settings: K562, 48 h

Structure (SMILES)	Ki [1] [µM]	further results
COc1ccc2c(c1)c(CC(=O)NS(=O)(=O)c1ccc(NCc3ccccc3)c([N+](=O)[O-])c1)c(C)n2-c1ccc(-c2ccccc2)cc1	> 10	–
COc1ccc2c(c1)c(CC(=O)NS(=O)(=O)c1ccc(Cl)c([N+](=O)[O-])c1)c(C)n2-c1ccc(-c2ccccc2)cc1	0.72	–
COc1ccc2c(c1)c(CC(=O)N[C@@H](Cc1ccccc1)C(=O)NS(=O)(=O)c1ccc(-c3ccccc3)cc1)c(C)n2-c1ccc(-c2ccccc2)cc1	> 10	–
COc1ccc(S(=O)(=O)NC(=O)[C@H](Cc2c[nH]c3ccccc23)NC(=O)Cc2c(C)n(-c3ccc(-c4ccccc4)cc3)c3ccc(OC)cc23)cc1	> 10	–
Cc1ccc(S(=O)(=O)NC(=O)[C@H](Cc2ccccc2)N2C(=O)/C(=C/c3ccc(-c4ccccc4)cc3)SC2=S)cc1	0.94	Ki (Bcl-2-like protein 1; read-out: Ki): 1.2 µM; Ki [2]: 0.47 µM; IC50 (MDA-MB-231): 45.9 µM; IC50 (PC-3): 30.1 µM; IC50 (K562): 44 µM
COc1ccc2c(c1)c(CC(=O)NS(=O)(=O)c1ccc(NCCSc3ccccc3)c([N+](=O)[O-])c1)c(C)n2-c1ccc(-c2ccccc2)cc1	> 10	–
COc1ccc2c(c1)c(CC(=O)N[C@@H](Cc1ccccc1)C(=O)NS(=O)(=O)c1ccc(Cl)cc1)c(C)n2-c1ccc(-c2ccccc2)cc1	0.91	–
COc1ccc2c(c1)c(CC(=O)NS(=O)(=O)c1ccc(Cl)c([N+](=O)[O-])c1)c(C)n2-c1ccc(C)cc1	> 10	–
COc1ccc2c(c1)c(CC(=O)N[C@@H](Cc1ccc(OCc3ccc([N+](=O)[O-])cc3)cc1)C(=O)NS(=O)(=O)c1ccc(Cl)c([N+](=O)[O-])c1)c(C)n2-c1ccc(-c2ccccc2)cc1	> 10	–
COc1ccc(S(=O)(=O)NC(=O)Cc2c(C)n(-c3ccc(-c4ccccc4)cc3)c3ccc(OC)cc23)cc1	> 10	–
COc1ccc(S(=O)(=O)NC(=O)[C@H](Cc2ccccc2)NC(=O)Cc2c(C)n(-c3ccc(-c4ccccc4)cc3)c3ccc(OC)cc23)cc1	0.47	Ki (Bcl-2-like protein 1): Not Active; Ki [2]: 0.88 µM; IC50 (MDA-MB-231): 38.6 µM; IC50 (PC-3): 23.5 µM; IC50 (K562): 27.5 µM
COc1ccc2c(c1)c(CC(=O)N[C@@H](Cc1ccccc1)C(=O)NS(=O)(=O)c1ccccc1)c(C)n2-c1ccc(C)cc1	> 10	–
COc1ccc2c(c1)c(CC(=O)N[C@@H](Cc1ccccc1)C(=O)NS(=O)(=O)c1ccc(Cl)c([N+](=O)[O-])c1)c(C)n2-c1ccc(-c2ccccc2)cc1	0.58	Ki (Bcl-2-like protein 1): Not Active; Ki [2]: 0.48 µM; IC50 (MDA-MB-231): 42.1 µM; IC50 (PC-3): 13.9 µM; IC50 (K562): 13 µM
COc1ccc2c(c1)c(CC(=O)NS(=O)(=O)c1ccc(N3CCOCC3)c([N+](=O)[O-])c1)c(C)n2-c1ccc(C)cc1	> 10	–
COc1ccc2c(c1)c(CC(=O)N[C@@H](Cc1ccccc1)C(=O)NS(=O)(=O)c1ccc([N+](=O)[O-])cc1)c(C)n2-c1ccc(-c2ccccc2)cc1	0.91	–
COc1ccc2c(c1)c(CC(=O)NS(=O)(=O)c1ccc(NC3CCCCC3)c([N+](=O)[O-])c1)c(C)n2-c1ccc(-c2ccccc2)cc1	> 10	–
COc1ccc2c(c1)c(CC(=O)N[C@@H](Cc1c[nH]c3ccccc13)C(=O)NS(=O)(=O)c1ccccc1)c(C)n2-c1ccc(-c2ccccc2)cc1	> 10	–
COc1ccc2c(c1)c(CC(=O)NS(=O)(=O)c1ccc(NCCCc3ccccc3)c([N+](=O)[O-])c1)c(C)n2-c1ccc(-c2ccccc2)cc1	> 10	–
COc1ccc2c(c1)c(CC(=O)NS(=O)(=O)c1ccccc1)c(C)n2-c1ccc(-c2ccccc2)cc1	> 10	–
COc1ccc2c(c1)c(CC(=O)NS(=O)(=O)c1ccc([N+](=O)[O-])cc1)c(C)n2-c1ccc(C)cc1	> 10	–
COc1ccc2c(c1)c(CC(=O)N[C@@H](Cc1ccc(OCc3ccc([N+](=O)[O-])cc3)cc1)C(=O)NS(=O)(=O)c1ccc(Cl)c([N+](=O)[O-])c1)c(C)n2-c1ccc(C)cc1	0.72	–
COc1ccc2c(c1)c(CC(=O)N[C@@H](Cc1c[nH]c3ccccc13)C(=O)NS(=O)(=O)c1ccc(Cl)c([N+](=O)[O-])c1)c(C)n2-c1ccc(-c2ccccc2)cc1	0.83	–
COc1ccc2c(c1)c(CC(=O)NS(=O)(=O)c1ccc(N3CCN(C)CC3)c([N+](=O)[O-])c1)c(C)n2-c1ccc(C)cc1	> 10	–
COc1ccc(S(=O)(=O)NC(=O)Cc2c(C)n(-c3ccc(C)cc3)c3ccc(OC)cc23)cc1	> 10	–
COc1ccc2c(c1)c(CC(=O)NS(=O)(=O)c1ccc(NCc3ccccc3)c([N+](=O)[O-])c1)c(C)n2-c1ccc(C)cc1	> 10	–
COc1ccc2c(c1)c(CC(=O)N[C@@H](Cc1ccccc1)C(=O)NS(=O)(=O)c1ccccc1)c(C)n2-c1ccc(-c2ccccc2)cc1	0.35	Ki (Bcl-2-like protein 1): Not Active; Ki [2]: 0.96 µM; IC50 (MDA-MB-231): 33.5 µM; IC50 (PC-3): 17.5 µM; IC50 (K562): 18.8 µM
COc1ccc2c(c1)c(CC(=O)NS(=O)(=O)c1ccc(N3CCOCC3)c([N+](=O)[O-])c1)c(C)n2-c1ccc(-c2ccccc2)cc1	> 10	–
